Key:
CFTR [1] = molecular target: CFTR (Homo sapiens, UniProt P13569); test: Membrane Potential Dye, Enteroid Assay A; assay type: cell-based
Method: Base medium (ADF+++) consisted of Advanced DMEM/Ham's F12, 2 mM Glutamax, 10 mM HEPES, 1 µg/mL penicillin/streptomycin.
Intestinal enteroid maintenance medium (IEMM) consisted of ADF+++, 1× B27 supplement, 1× N2 supplement, 1.25 mM N-acetyl cysteine, 10 mM Nicotinamide, 50 ng/mL hEGF, 10 nM Gastrin, 1 pg/mL hR-spondin-1, 100 ng/mL hNoggin, TGF-b type 1 inhibitor A-83-01, 100 μg/mL Primocin, […] P38 MAPK inhibitor SB202190.
Bath 1 Buffer consisted of 1 mM MgCl2, 160 mM NaCl, 4.5 mM KCl, 10 mM HEPES, 10 mM Glucose, 2 mM CaCl2).
Chloride Free Buffer consisted of 1 mM Magnesium Gluconate, 2 mM Calcium Gluconate, 4.5 mM Potassium Gluconate, 160 mM Sodium Gluconate, 10 mM HEPES, 10 mM Glucose.
Bath1 Dye Solution consisted of Bath 1 Buffer, 0.04% Pluronic F127, […] Methyl Oxonol, 30 μM CaCCinh-A01, 30 μM Chicago Sky Blue.
Chloride Free Dye Solution consisted of Chloride Free Buffer, 0.04% Pluronic F127, 20 μM Methyl Oxonol, 30 μM CaCCinh-A01, 30 μM Chicago Sky Blue.
Chloride Free Dye Stimulation Solution consisted of Chloride Free Dye Solution, 10 μM forskolin, 100 μM IBMX, and 300 nM Compound III.
Human intestinal epithelial enteroid cells were obtained from the Hubrecht Institute for Developmental Biology and Stem Cell Research, Utrecht, The Netherlands and expanded in T-Flasks as previously described (Dekkers J F, Wiegerinck C L, de Jonge H R, Bronsveld I, Janssens H M, de Winter-de Groot K M, Brandsma A M, de Jong N W M, Bijvelds M J C, Scholte B J, Nieuwenhuis E E S, van den Brink S, Clevers H, van der Ent C K, Middendorp S and M Beekman J M. A functional CFTR assay using primary cystic fibrosis intestinal organoids. Nat Med. 2013 July; 19(7):939-45.).
Cells were recovered in cell recovery solution, collected by centrifugation at 650 rpm for 5 min at 4° C., resuspended in TryPLE and incubated for 5 min at 37° C. Cells were then collected by centrifugation at 650 rpm for 5 min at 4° C. and resuspended in IEMM containing 10 μM ROCK inhibitor (RI). The cell suspension was passed through a 40 μm cell strainer and resuspended at 1×10^6 cells/mL in IEMM containing 10 μM RI. Cells were seeded at 5000 cells/well into multi-well plates and incubated for overnight at 37° C., 95% humidity and 5% CO2 prior to assay.
Enteroid cells were incubated with test compound in IEMM for 18-24 hours at 37° C., 95% humidity and 5% CO2. […] Briefly, cells were washed 5 times in Bath 1 Buffer. Bath 1 Dye Solution was added, and the cells were incubated for 25 min at room temperature. Following dye incubation, cells were washed 3 times in Chloride Free Dye Solution. Chloride transport was initiated by addition of Chloride Free Dye Stimulation Solution and the fluorescence signal was read for 15 min. […] Chloride transport was then expressed as a percentage of the chloride transport following treatment with 3 μM (S)—N-((6-aminopyridin-2-yl)sulfonyl)-6-(3-fluoro-5-isobutoxyphenyl)-2-(2,2,4-trimethylpyrrolidin-1-yl)nicotinamide, 3 μM (R)-1-(2,2-difluorobenzo[d][1,3]dioxol-5-yl)-N-(1-(2,3-dihydroxypropyl)-6-fluoro-2-(1-hydroxy-2-methylpropan-2-yl)-1H-indol-5-yl)cyclopropanecarboxamide and 300 nM acute N-[2,4-bis(1,1-dimethylethyl)-5-hydroxyphenyl]-1,4-dihydro-4-oxoquinoline-3-carboxamide triple combination control (% Activity).

CFTR [2] = molecular target: T1, CFTR (Homo sapiens, UniProt P13569, DEL508-508); test: HBE Assay: Ussing chamber assay of CFTR-mediated short-circuit currents in F508del/MF-HBE cells with 1 μM Ivacaftor; assay type: cell-based; details: 20% human serum; for EC50 / HBE Max Activity / Emax / HBE Activity at 10 μM (%): 18-24 hours; for Emax: compared to known Vertex corrector with 18 μM Tezacaftor and 1 μM Ivacaftor, read-out: HBE Max activity (%); for HBE Activity at 10 μM (%): single fixed concentration of 10 μM with 1 μM Ivacaftor
T1 construct: endogenous in cells; host or cells: primary human bronchial epithelial cells, F508del/MF genotype
T1 sequence (P13569 with tags, fused parts or gaps DEL508-508): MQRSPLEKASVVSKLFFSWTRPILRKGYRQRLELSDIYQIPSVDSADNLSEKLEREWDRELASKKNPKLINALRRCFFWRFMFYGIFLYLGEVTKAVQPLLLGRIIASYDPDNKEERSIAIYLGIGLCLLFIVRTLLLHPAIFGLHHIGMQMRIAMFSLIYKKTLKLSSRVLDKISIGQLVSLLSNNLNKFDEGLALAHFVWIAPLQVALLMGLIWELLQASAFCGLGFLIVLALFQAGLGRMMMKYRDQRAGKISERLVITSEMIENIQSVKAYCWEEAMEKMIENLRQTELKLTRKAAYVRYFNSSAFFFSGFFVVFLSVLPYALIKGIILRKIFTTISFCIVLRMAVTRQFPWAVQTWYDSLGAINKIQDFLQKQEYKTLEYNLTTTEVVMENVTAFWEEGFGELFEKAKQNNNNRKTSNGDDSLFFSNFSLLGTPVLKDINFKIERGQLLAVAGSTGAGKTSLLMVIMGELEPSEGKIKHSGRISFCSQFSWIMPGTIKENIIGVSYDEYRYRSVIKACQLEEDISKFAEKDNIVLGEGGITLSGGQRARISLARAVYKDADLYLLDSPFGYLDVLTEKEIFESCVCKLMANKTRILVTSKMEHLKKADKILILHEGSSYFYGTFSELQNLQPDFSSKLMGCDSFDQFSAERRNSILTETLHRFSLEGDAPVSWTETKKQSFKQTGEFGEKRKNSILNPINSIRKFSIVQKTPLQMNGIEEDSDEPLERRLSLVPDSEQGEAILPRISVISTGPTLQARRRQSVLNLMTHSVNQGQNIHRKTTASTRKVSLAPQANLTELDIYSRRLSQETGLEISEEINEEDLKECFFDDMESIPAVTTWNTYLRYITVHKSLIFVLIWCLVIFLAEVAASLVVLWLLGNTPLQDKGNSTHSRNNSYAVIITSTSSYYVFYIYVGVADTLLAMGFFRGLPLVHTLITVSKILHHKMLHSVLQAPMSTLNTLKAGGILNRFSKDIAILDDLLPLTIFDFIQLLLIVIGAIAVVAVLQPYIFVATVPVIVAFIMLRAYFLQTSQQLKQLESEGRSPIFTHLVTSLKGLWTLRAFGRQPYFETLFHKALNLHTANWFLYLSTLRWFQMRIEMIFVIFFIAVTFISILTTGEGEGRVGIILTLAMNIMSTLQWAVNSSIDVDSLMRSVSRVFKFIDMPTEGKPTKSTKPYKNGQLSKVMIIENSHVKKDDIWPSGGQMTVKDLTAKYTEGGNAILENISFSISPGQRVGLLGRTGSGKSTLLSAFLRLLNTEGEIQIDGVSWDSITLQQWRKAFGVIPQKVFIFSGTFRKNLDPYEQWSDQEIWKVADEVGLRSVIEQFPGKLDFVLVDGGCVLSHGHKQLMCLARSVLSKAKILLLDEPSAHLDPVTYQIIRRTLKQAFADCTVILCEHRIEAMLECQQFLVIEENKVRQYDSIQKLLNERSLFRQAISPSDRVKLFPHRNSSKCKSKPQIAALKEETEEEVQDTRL
Procedure, shortened: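 F508del/MF-HBE cells at air-liquid interface >14 days were incubated 18-24 h at 37° C with corrector (concentration range or fixed 10 μM) plus 1 μM Ivacaftor in 20% human serum, compounds kept throughout. Ussing chamber, Vhold=0 mV, 37° C, apical amiloride 30 μM; ISC (μA/cm^2) from peak 20 μM forskolin response to steady state after CFTR inhibitor cocktail.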

[3] = range of concentrations with 1 μM Ivacaftor

CFTR (Homo sapiens, UniProt P13569), sequence (P13569 with tags, fused parts or gaps DEL508-508): as above

SMILES | EC50 (CFTR [2]; [3]) [µM] | Emax (CFTR [2]; with 1 μM Ivacaftor) [%] | further results
CCc1c2nc(nc1-c1c(C)cccc1OC)NS(=O)(=O)c1cccc(c1)NC(=O)c1cccc(c1)O2 [Compound 6, 4-Ethyl-5-(2-methoxy-6-methylphenyl)-2-oxa-9λ^6-thia-6,8,15,23-tetraazatetracyclo[15.3.1.13,7.110,14]tricosa-1(21),3,5,7(23),10(22),11,13,17,19-nonaene-9,9,16-trione] |  |  | Ent. A Max Activity (CFTR [1]): ++ (++ is 30-60%); EC50 (CFTR [1]; read-out: Ent. A EC50): 1 to 3 µM
CCc1c2nc(nc1-c1cccnc1C)NS(=O)(=O)c1cccc(c1)NC(=O)c1cccc(c1)O2 [Compound 7, 4-Ethyl-5-(2-methylpyridin-3-yl)-2-oxa-9λ^6-thia-6,8,15,23-tetraazatetracyclo[15.3.1.13,7.110,14]tricosa-1(21),3,5,7(23),10(22),11,13,17,19-nonaene-9,9,16-trione] |  |  | Ent. A Max Activity (CFTR [1]): + (+ is <30%)
Cc1cccc(C)c1-c1nc2nc(c1C)OC[C@@H](CC(C)C)N(Cc1ncc(N3CCC(C)(C)C3)cn1)C(=O)c1cccc(c1)S(=O)(=O)N2 [Compound 199] |  |  | EC50 (CFTR [2]; with 1 μM Ivacaftor): < 1 µM; HBE Max Activity (CFTR [2]; with 1 μM Ivacaftor): +++ (+++ is >600%)
Cc1cccc(OC(C)C)c1-c1nc2nc(c1C)OC[C@@H](CC(C)(C)C)N(Cc1cnc(N(C)CC(C)(C)C)cn1)C(=O)c1cccc(c1)S(=O)(=O)N2 [Compound 222] |  |  | HBE Activity at 10 μM (CFTR [2]; single fixed concentration of 10 μM, with 1 μM Ivacaftor): +++ (+++ is >600%)
Cc1cccc(CC2CCCCC2)c1-c1nc2nc(c1C)OC[C@@H](CC(C)(C)C)N(Cc1ncc(OC(C)C)cn1)C(=O)c1cccc(c1)S(=O)(=O)N2 [Compound 234] |  |  | EC50 (CFTR [2]; with 1 μM Ivacaftor): < 1 µM; HBE Max Activity (CFTR [2]; with 1 μM Ivacaftor): +++ (+++ is >600%)
Cc1cccc(CC(C)C)c1-c1nc2nc(c1C)OC[C@@H](C(C)C)N(Cc1ncc(N3CCC(C)(C)C3)cn1)C(=O)c1cccc(c1)S(=O)(=O)N2 [Compound 240] |  |  | EC50 (CFTR [2]; with 1 μM Ivacaftor): 1 to 3 µM; HBE Max Activity (CFTR [2]; with 1 μM Ivacaftor): +++ (+++ is >600%)
Cc1cccc(CC2CCCCC2)c1-c1nc2nc(c1C)OC[C@@H](CC(C)(C)C)N(Cc1nccc(C(C)C)n1)C(=O)c1cccc(c1)S(=O)(=O)N2 [Compound 250] |  |  | EC50 (CFTR [2]; with 1 μM Ivacaftor): < 1 µM; HBE Max Activity (CFTR [2]; with 1 μM Ivacaftor): +++ (+++ is >600%)
Cc1cccc(CC2CCCCC2)c1-c1nc2nc(c1C)OC[C@@H](CC(C)(C)C)N(Cc1ncc(C3CCOCC3)cn1)C(=O)c1cccc(c1)S(=O)(=O)N2 [Compound 251] |  |  | EC50 (CFTR [2]; with 1 μM Ivacaftor): < 1 µM; HBE Max Activity (CFTR [2]; with 1 μM Ivacaftor): +++ (+++ is >600%)
Cc1cccc(CC2CCCCC2)c1-c1nc2nc(c1C)OC[C@@H](CC(C)(C)C)N(Cc1ccc(C3CCOCC3)cn1)C(=O)c1cccc(c1)S(=O)(=O)N2 [Compound 257] |  |  | EC50 (CFTR [2]; with 1 μM Ivacaftor): < 1 µM; HBE Max Activity (CFTR [2]; with 1 μM Ivacaftor): +++ (+++ is >600%)
COCCN(C)c1cnc(CN2C(=O)c3cccc(c3)S(=O)(=O)Nc3nc(c(C)c(-c4c(C)cccc4CC4CCCCC4)n3)OC[C@H]2CC(C)(C)C)cn1 [Compound 278] |  |  | EC50 (CFTR [2]; with 1 μM Ivacaftor): 1 to 3 µM; HBE Max Activity (CFTR [2]; with 1 μM Ivacaftor): +++ (+++ is >600%)
COCCN(C)c1cnc(CN2C(=O)c3cccc(c3)S(=O)(=O)Nc3nc(c(C)c(-c4c(C)cccc4CC4CCCCC4)n3)OC[C@H]2CC(C)(C)C)nc1 [Compound 283] |  |  | EC50 (CFTR [2]; with 1 μM Ivacaftor): < 1 µM; HBE Max Activity (CFTR [2]; with 1 μM Ivacaftor): +++ (+++ is >600%)
Cc1cccc(C)c1-c1nc2nc(c1C)OC[C@@H](CC(C)(C)C)N(Cc1cnc(C3CCOCC3)cn1)C(=O)c1cccc(c1)S(=O)(=O)N2 [Compound 331] | < 1 | > 60 | 
Cc1cccc(C)c1-c1nc2nc(c1F)OC[C@@H](CC(C)(C)C)N(Cc1ncc(OC(C)C)cn1)C(=O)c1cccc(c1)S(=O)(=O)N2 [Compound 335] | < 1 | > 60 | 
Cc1cccc(C)c1-c1nc2nc(c1F)OC[C@@H](CC(C)(C)C)N(Cc1ncc(OC3CCC3)cn1)C(=O)c1cccc(c1)S(=O)(=O)N2 [Compound 336] | < 1 | > 60 | 
Cc1cccc(C)c1-c1nc2nc(c1F)OC[C@@H](CC(C)C)N(Cc1ncc(OC(C)C)cn1)C(=O)c1cccc(c1)S(=O)(=O)N2 [Compound 337] | < 1 | > 60 | 
Cc1cccc(C)c1-c1nc2nc(c1F)OC[C@@H](CC(C)C)N(Cc1ncc(OC3CCC3)cn1)C(=O)c1cccc(c1)S(=O)(=O)N2 [Compound 338] | < 1 | > 60 | 
Cc1cccc(C)c1-c1nc2nc(c1F)OC[C@@H](CC(C)(C)C)N(Cc1ncc(N3CCC(C)(C)C3)cn1)C(=O)c1cccc(c1)S(=O)(=O)N2 [Compound 341] | < 1 | > 60 | 
Cc1cccc(C)c1-c1nc2nc(c1F)OC[C@@H](CC(C)C)N(Cc1ncc(N3CCC(C)(C)C3)cn1)C(=O)c1cccc(c1)S(=O)(=O)N2 [Compound 342] | < 1 | > 60 | 
Cc1cccc(C)c1-c1nc2nc(c1F)OC[C@@H](CC1CC1)N(Cc1ncc(OC(C)C)cn1)C(=O)c1cccc(c1)S(=O)(=O)N2 [Compound 343] | 1 to 3 | > 60 | 
Cc1cccc(C)c1-c1nc2nc(c1F)OC[C@@H](CC1CC1)N(Cc1ncc(OC3CCC3)cn1)C(=O)c1cccc(c1)S(=O)(=O)N2 [Compound 344] | 1 to 3 | > 60 | 
Cc1cccc(C)c1-c1nc2nc(c1C)OC[C@@H](CC1CC1)N(Cc1ncc(OC(C)C)cn1)C(=O)c1cccc(c1)S(=O)(=O)N2 [Compound 345] | < 1 | > 60 | 
Cc1cccc(C)c1-c1nc2nc(c1C)OC[C@@H](CC1CC1)N(Cc1ncc(OC3CCC3)cn1)C(=O)c1cccc(c1)S(=O)(=O)N2 [Compound 346] | < 1 | > 60 | 
Cc1cccc(CC2COC2)c1-c1nc2nc(c1C)OC[C@@H](CC(C)(C)C)N(Cc1ncc(OC(C)C)cn1)C(=O)c1cccc(c1)S(=O)(=O)N2 [Compound 347] |  |  | HBE Activity at 10 μM (%) (CFTR [2]): +++ (+++ is >60%)
COc1c2nc(nc1-c1c(C)cccc1C)NS(=O)(=O)c1cccc(c1)C(=O)N(Cc1ncc(OC(C)C)cn1)[C@H](CC(C)C)CO2 [Compound 348] | < 1 | > 60 | 
COc1c2nc(nc1-c1c(C)cccc1C)NS(=O)(=O)c1cccc(c1)C(=O)N(Cc1ncc(OC3CCC3)cn1)[C@H](CC(C)C)CO2 [Compound 349] | < 1 | > 60 | 
Cc1cccc(C)c1-c1nc2nc(c1F)OC[C@@H](CC1CCC1)N(Cc1ncc(OC(C)C)cn1)C(=O)c1cccc(c1)S(=O)(=O)N2 [Compound 354] |  |  | HBE Activity at 10 μM (%) (CFTR [2]): +++ (+++ is >60%)
Cc1cccc(C)c1-c1nc2nc(c1C)OC[C@@H](CC1CCC1)N(Cc1ncc(OC(C)C)cn1)C(=O)c1cccc(c1)S(=O)(=O)N2 [Compound 355] |  |  | HBE Activity at 10 μM (%) (CFTR [2]): +++ (+++ is >60%)

— patent US20230374038A1, “MODULATORS OF CYSTIC FIBROSIS TRANSMEMBRANE CONDUCTANCE REGULATOR” (VERTEX PHARMACEUTICALS INCORPORATED, priority 2020, published 2023)
